Results as given in ChEMBL document CHEMBL3885861, “Open TG-GATES”.

Species: Rattus norvegicus
Test: Open TG-GATES - Regimen: Single
Type: toxicity, organism-based, Sprague-Dawley
Design: regimen Single, gender Male, age 6 weeks
Details: in vivo, po, 200 mg/kg, route gavage, dose level Middle; for APTT / Bas / Eos / Fbg / Hb / Ht / Lym / MCH / MCHC / MCV / Mono / Neu / PT / Plat / RBC / Ret / WBC: tissue Blood; for KIDNEY_L / KIDNEY_R / KIDNEY_TOTAL: tissue Kidney; for LIVER: tissue Liver; for A/G / ALP / ALT / AST / BUN / CRE / Ca / Cl / DBIL / GLC / IP / K / LDH / Na / PL / RALB / TBIL / TC / TG / TP / gamma-GTP: tissue Plasma

## C[C@](N)(Cc1ccc(O)c(O)c1)C(=O)O [METHYLDOPA]
3 h
  TERMINAL_BW: 187.9 g
  APTT: 15.7 s
  Bas: 0.2%
  Eos: 0.8%
  Fbg: 274 mg/dL
  Hb: 13.1 g/dL
  Ht: 39.2%
  Lym: 79%
  MCH: 21.5 pg
  MCHC: 33.4%
  MCV: 64.6 fL
  Mono: 3.4%
  Neu: 15.8%
  PT: 12.4 s
  Plat: 105.6 x10_4/uL
  RBC: 607 x10_4/ul
  Ret: 10.7%
  WBC: 91.2 x10_2/uL
  KIDNEY_L: 0.9 g
  KIDNEY_R: 0.8 g
  KIDNEY_TOTAL: 1.7 g
  LIVER: 7.8 g
  A/G: 0.9
  ALP: 1861.2 IU/L
  ALT: 55 IU/L
  AST: 80.2 IU/L
  BUN: 9 mg/dL
  CRE: 0.1 mg/dL
  Ca: 11.4 mg/dL
  Cl: 107.2 meq/L
  DBIL: 0.008 mg/dL
  GLC: 205.8 mg/dL
  IP: 9.8 mg/dL
  K: 4.6 meq/L
  LDH: 64.4 IU/L
  Na: 142.2 meq/L
  PL: 129.2 mg/dL
  RALB: 2.6 g/dL
  TBIL: 0.058 mg/dL
  TC: 78.6 mg/dL
  TG: 45 mg/dL
  TP: 5.4 g/dL
  gamma-GTP: 1.2 IU/L
6 h
  TERMINAL_BW: 189 g
  APTT: 16.4 s
  Bas: 0%
  Eos: 0.6%
  Fbg: 267.4 mg/dL
  Hb: 13.5 g/dL
  Ht: 41.1%
  Lym: 73.8%
  MCH: 21.1 pg
  MCHC: 32.8%
  MCV: 64.3 fL
  Mono: 3%
  Neu: 22.2%
  PT: 12.2 s
  Plat: 120.2 x10_4/uL
  RBC: 640.2 x10_4/ul
  Ret: 11.7%
  WBC: 56.8 x10_2/uL
  KIDNEY_L: 0.8 g
  KIDNEY_R: 0.8 g
  KIDNEY_TOTAL: 1.6 g
  LIVER: 7.9 g
  A/G: 0.9
  ALP: 1438.2 IU/L
  ALT: 48.2 IU/L
  AST: 71.6 IU/L
  BUN: 6.6 mg/dL
  CRE: 0.1 mg/dL
  Ca: 11.8 mg/dL
  Cl: 107 meq/L
  DBIL: 0.006 mg/dL
  GLC: 219.4 mg/dL
  IP: 13 mg/dL
  K: 5.3 meq/L
  LDH: 58.8 IU/L
  Na: 144.6 meq/L
  PL: 130.2 mg/dL
  RALB: 2.5 g/dL
  TBIL: 0.054 mg/dL
  TC: 85.8 mg/dL
  TG: 45.8 mg/dL
  TP: 5.3 g/dL
  gamma-GTP: 1 IU/L
9 h
  TERMINAL_BW: 186.6 g
  APTT: 16.1 s
  Bas: 0%
  Eos: 1.2%
  Fbg: 268.6 mg/dL
  Hb: 13.1 g/dL
  Ht: 38.8%
  Lym: 77.6%
  MCH: 22.3 pg
  MCHC: 33.8%
  MCV: 66 fL
  Mono: 2.8%
  Neu: 17.6%
  PT: 12.2 s
  Plat: 121.1 x10_4/uL
  RBC: 588.8 x10_4/ul
  Ret: 10.8%
  WBC: 53.5 x10_2/uL
  KIDNEY_L: 0.8 g
  KIDNEY_R: 0.8 g
  KIDNEY_TOTAL: 1.6 g
  LIVER: 7.2 g
  A/G: 0.9
  ALP: 1466.4 IU/L
  ALT: 43.4 IU/L
  AST: 71.8 IU/L
  BUN: 7 mg/dL
  CRE: 0.1 mg/dL
  Ca: 11 mg/dL
  Cl: 107 meq/L
  DBIL: 0.008 mg/dL
  GLC: 203.2 mg/dL
  IP: 11.2 mg/dL
  K: 4.9 meq/L
  LDH: 57.4 IU/L
  Na: 143.6 meq/L
  PL: 131.6 mg/dL
  RALB: 2.5 g/dL
  TBIL: 0.07 mg/dL
  TC: 83.6 mg/dL
  TG: 49.6 mg/dL
  TP: 5.3 g/dL
  gamma-GTP: 1 IU/L
24 h
  TERMINAL_BW: 192.7 g
  APTT: 16 s
  Bas: 0%
  Eos: 1%
  Fbg: 251.2 mg/dL
  Hb: 13.2 g/dL
  Ht: 39.1%
  Lym: 75.4%
  MCH: 22.1 pg
  MCHC: 33.9%
  MCV: 65.1 fL
  Mono: 2.8%
  Neu: 20.4%
  PT: 12.6 s
  Plat: 115.8 x10_4/uL
  RBC: 600.4 x10_4/ul
  Ret: 9.3%
  WBC: 76.2 x10_2/uL
  KIDNEY_L: 0.9 g
  KIDNEY_R: 0.8 g
  KIDNEY_TOTAL: 1.7 g
  LIVER: 8.9 g
  A/G: 0.9
  ALP: 1671.8 IU/L
  ALT: 58.2 IU/L
  AST: 80.8 IU/L
  BUN: 15.8 mg/dL
  CRE: 0.2 mg/dL
  Ca: 11.4 mg/dL
  Cl: 107.6 meq/L
  DBIL: 0.014 mg/dL
  GLC: 191 mg/dL
  IP: 8.6 mg/dL
  K: 4.6 meq/L
  LDH: 73.6 IU/L
  Na: 144.4 meq/L
  PL: 136.4 mg/dL
  RALB: 2.6 g/dL
  TBIL: 0.064 mg/dL
  TC: 80 mg/dL
  TG: 68.6 mg/dL
  TP: 5.5 g/dL
  gamma-GTP: 1 IU/L
